Measured values as given in patent publication US12336982B2 (RODEO THERAPEUTICS CORPORATION, priority 2018, dated 2025).

target: T1, recombinant 15-PGDH (Homo sapiens, UniProt P15428); assay type: biochemical; settings: recombinant human 15-PGDH, in vitro; read-out: PDGH Assay-IC50
T1 sequence (P15428 1-266): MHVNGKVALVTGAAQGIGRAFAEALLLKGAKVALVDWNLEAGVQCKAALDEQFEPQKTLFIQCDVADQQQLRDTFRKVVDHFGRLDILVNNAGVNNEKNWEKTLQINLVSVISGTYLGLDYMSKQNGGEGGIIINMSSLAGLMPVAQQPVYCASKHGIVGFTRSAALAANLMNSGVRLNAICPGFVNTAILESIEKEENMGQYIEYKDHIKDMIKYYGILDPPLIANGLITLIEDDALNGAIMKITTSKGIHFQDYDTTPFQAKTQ
Description: The Recombinant 15-PGDH is human unless otherwise specified.

Row | SMILES | IC50 [nM]
1 | COCC[S@+]([O-])c1sc2nc(-c3cnc4nn(C)cc4c3)cc(-c3ccnn3C)c2c1N [Example 336] | ≥ 10
2 | COCC[S@+]([O-])c1sc2nc(-c3cnc4nn(C)cc4c3)cc(-c3ccn(C)n3)c2c1N [Example 344] | ≥ 10
3 | Nc1c([S+]([O-])C2CCC2)sc2nc(-c3cnc4nn(CCO)cc4c3)cc(C3CCC3)c12 (stereo not shown) [Example 348] | 2.5 to 10
4 | CC(C)(C)[S+]([O-])c1sc2nc(-c3cnc(NCCO)nc3)cc(C3CCC3)c2c1N (stereo not shown) [Example 353] | 2.5 to 10
5 | COCC[S+]([O-])c1sc2nc(-c3cnc4nncn4c3)cc(-c3ccccc3)c2c1N (stereo not shown) [Example 358] | ≥ 10
6 | COCC[S@+]([O-])c1sc2nc(-c3cnc4nncn4c3)cc(-c3ccccc3)c2c1N [Example 360] | ≥ 10
7 | COCC[S@+]([O-])c1sc2nc(-c3cnc4ncn(C)c4c3)cc(-c3ccccc3)c2c1N [Example 363] | ≥ 10
8 | COCC[S@+]([O-])c1sc2nc(-c3cnc4ncn(C)c4c3)cc(C3CCC3)c2c1N [Example 367] | ≥ 10
9 | Cn1nccc1-c1cc(-c2cnc3ncn(C)c3c2)nc2sc([S@@+]([O-])C3CCC3)c(N)c12 [Example 372] | ≥ 10
10 | COCC[S@@+]([O-])c1sc2nc(-c3cnc4c(c3)ncn4C)cc(C3CCC3)c2c1N [Example 374] | < 2.5
11 | COCC[S@+]([O-])c1sc2nc(-c3cnc4c(c3)ncn4C)cc(C3CCC3)c2c1N [Example 375] | ≥ 10
12 | COCC[S+]([O-])c1sc2nc(-c3cnc4c(c3)ncn4C)cc(C3CCC3)c2c1N (stereo not shown) [Example 376] | < 2.5
13 | COCC[S+]([O-])c1sc2nc(-c3cnc4nn(C)nc4c3)cc(C3CCC3)c2c1N (stereo not shown) [Example 377] | < 2.5
14 | Cn1nc2cc(-c3cc(-c4ccnn4C)c4c(N)c([S+]([O-])C5CCC5)sc4n3)cnc2n1 (stereo not shown) [Example 378] | < 2.5
15 | COCC[S+]([O-])c1sc2nc(-c3cnc4c(c3)ncn4C)cc(-c3ccnn3C)c2c1N (stereo not shown) [Example 379] | < 2.5
16 | COCC[S+]([O-])c1sc2nc(-c3cnc4nn(C)nc4c3)cc(-c3ccnn3C)c2c1N (stereo not shown) [Example 380] | < 2.5
17 | COCC[S@@+]([O-])c1sc2nc(-c3cnc4nn(C)nc4c3)cc(-c3ccnn3C)c2c1N [Example 381] | < 2.5
18 | COCC[S@+]([O-])c1sc2nc(-c3cnc4nn(C)nc4c3)cc(-c3ccnn3C)c2c1N [Example 382] | ≥ 10
19 | Cn1nccc1-c1cc(-c2cnc3c(c2)ncn3C)nc2sc([S+]([O-])C3CCC3)c(N)c12 (stereo not shown) [Example 383] | < 2.5
20 | COCC[S+]([O-])c1sc2nc(-c3cnc4c(c3)CN(C)C4=O)cc(-c3ccccc3)c2c1N (stereo not shown) [Example 384] | < 2.5
21 | COCC[S+]([O-])c1sc2nc(-c3cnc4c(c3)CN(C)C4=O)cc(C3CCC3)c2c1N (stereo not shown) [Example 385] | < 2.5
22 | COCCn1ccc(-c2cc(-c3cnc4nn(C)cc4c3)nc3sc([S+]([O-])CCOC)c(N)c23)n1 (stereo not shown) [Example 386] | < 2.5
23 | COCCn1ccc(-c2cc(-c3cnc4nn(C)cc4c3)nc3sc([S@+]([O-])CCOC)c(N)c23)n1 [Example 387] | < 2.5
24 | COCCn1ccc(-c2cc(-c3cnc4nn(C)cc4c3)nc3sc([S@@+]([O-])CCOC)c(N)c23)n1 [Example 388] | ≥ 10
25 | COCC[S+]([O-])c1sc2nc(-c3ccc(NC(=O)OC)nc3)cc(-c3cccnc3)c2c1N (stereo not shown) [Example 390] | 2.5 to 10
26 | COCC[S+]([O-])c1sc2nc(-c3ccc(NC(=O)OC)nc3)cc(C3CCC3)c2c1N (stereo not shown) [Example 391] | 2.5 to 10

Continued, values first:

Row | IC50 [nM] | SMILES
27 | < 2.5 | COCC[S+]([O-])c1sc2nc(-c3cncnc3)cc(-c3ccn(C)n3)c2c1N (stereo not shown) [Example 337]
28 | < 2.5 | Cn1ccc(-c2cc(-c3cnc(N)nc3)nc3sc([S+]([O-])C4CCC4)c(N)c23)n1 (stereo not shown) [Example 338]
29 | < 2.5 | CNc1ncc(-c2cc(-c3ccn(C)n3)c3c(N)c([S+]([O-])CCOC)sc3n2)cn1 (stereo not shown) [Example 339]
30 | < 2.5 | Cn1ccc(-c2cc(-c3cnc(NCCO)nc3)nc3sc([S+]([O-])C4CCC4)c(N)c23)n1 (stereo not shown) [Example 340]
31 | < 2.5 | Cn1ccc(-c2cc(-c3cnc4nn(C)cc4c3)nc3sc([S+]([O-])C4CCC4)c(N)c23)n1 (stereo not shown) [Example 341]
32 | < 2.5 | COCC[S+]([O-])c1sc2nc(-c3cnc4nn(C)cc4c3)cc(-c3ccn(C)n3)c2c1N (stereo not shown) [Example 342]
33 | < 2.5 | COCC[S@@+]([O-])c1sc2nc(-c3cnc4nn(C)cc4c3)cc(-c3ccn(C)n3)c2c1N [Example 343]
34 | < 2.5 | Cn1nccc1-c1cc(-c2ccnnc2)nc2sc([S+]([O-])C3CCC3)c(N)c12 (stereo not shown) [Example 345]
35 | < 2.5 | COCC[S@@+]([O-])c1sc2nc(-c3cnc(N)nc3)cc(C3CCC3)c2c1N [Example 346]
36 | < 2.5 | COCC[S+]([O-])c1sc2nc(-c3ccnnc3)cc(C3CCC3)c2c1N (stereo not shown) [Example 347]
37 | < 2.5 | COCC[S@@+]([O-])c1sc2nc(-c3cnc(NCCO)nc3)cc(C3CCC3)c2c1N [Example 349]
38 | < 2.5 | Nc1ncc(-c2cc(-c3ccno3)c3c(N)c([S+]([O-])C4CCC4)sc3n2)cn1 (stereo not shown) [Example 350]
39 | < 2.5 | Nc1c([S+]([O-])C2CCC2)sc2nc(-c3cnc(NCCO)nc3)cc(-c3ccon3)c12 (stereo not shown) [Example 351]
40 | < 2.5 | COCC[S+]([O-])c1sc2nc(-c3cncnc3)cc(-c3ccon3)c2c1N (stereo not shown) [Example 352]
41 | < 2.5 | Cn1nccc1-c1cc(-c2cnc(NCCO)nc2)nc2sc([S+]([O-])C(C)(C)C)c(N)c12 (stereo not shown) [Example 354]
42 | < 2.5 | Cc1cc(-c2cc(-c3cnc(N)nc3)nc3sc([S+]([O-])C4CCC4)c(N)c23)n(C)n1 (stereo not shown) [Example 355]
43 | < 2.5 | Cc1cc(-c2cc(-c3cncnc3)nc3sc([S+]([O-])C4CCC4)c(N)c23)n(C)n1 (stereo not shown) [Example 356]
44 | < 2.5 | Cc1cn(C)nc1-c1cc(-c2cnc(N)nc2)nc2sc([S+]([O-])C3CCC3)c(N)c12 (stereo not shown) [Example 357]
45 | < 2.5 | COCC[S@@+]([O-])c1sc2nc(-c3cnc4nncn4c3)cc(-c3ccccc3)c2c1N [Example 359]
46 | < 2.5 | COCC[S+]([O-])c1sc2nc(-c3cnc4ncn(C)c4c3)cc(-c3ccccc3)c2c1N (stereo not shown) [Example 361]
47 | < 2.5 | COCC[S@@+]([O-])c1sc2nc(-c3cnc4ncn(C)c4c3)cc(-c3ccccc3)c2c1N [Example 362]
48 | < 2.5 | COCC[S+]([O-])c1sc2nc(-c3cnc4ncn(C)c4c3)cc(-c3ccccc3)c2c1N (stereo not shown) [Example 364]
49 | < 2.5 | COCC[S+]([O-])c1sc2nc(-c3cnc4ncn(C)c4c3)cc(C3CCC3)c2c1N (stereo not shown) [Example 365]
50 | < 2.5 | COCC[S@@+]([O-])c1sc2nc(-c3cnc4ncn(C)c4c3)cc(C3CCC3)c2c1N [Example 366]
51 | < 2.5 | COCC[S+]([O-])c1sc2nc(-c3cnc4nnn(C)c4c3)cc(C3CCC3)c2c1N (stereo not shown) [Example 368]
52 | < 2.5 | Cn1nccc1-c1cc(-c2cnc3nnn(C)c3c2)nc2sc([S+]([O-])C3CCC3)c(N)c12 (stereo not shown) [Example 369]
53 | < 2.5 | Cn1nccc1-c1cc(-c2cnc3nnn(C)c3c2)nc2sc([S+]([O-])C3CCC3)c(N)c12 (stereo not shown) [Example 370]
54 | < 2.5 | Cn1nccc1-c1cc(-c2cnc3ncn(C)c3c2)nc2sc([S@+]([O-])C3CCC3)c(N)c12 [Example 371]
55 | < 2.5 | COCC[S+]([O-])c1sc2nc(-c3cnc4c(c3)ncn4C)cc(C3CCC3)c2c1N (stereo not shown) [Example 373]
